This is an account of results in patent US20050107475A1, “Methods of using farnesoid x receptor (frx) agonists” (priority 2002, published 2005).

The test system of experiment [1] is human Fibroblast Growth Factor 19 (hFGF19). As to the kind of experiment: Differential expression of FGF19 in human hepatocytes treated with FXR agonists (transcript profiling). The settings on record: vs DMSO control. Format: cell-based.
Description: The present study utilized differential gene expression analysis as performed by CuraGen Corporation (New Haven, Conn.) using transcript profiling technology. […] In brief, RNA is extracted from samples and cDNA synthesis is carried out. The cDNAs are then digested with multiple pairs of different restriction enzymes (standard set of 96 different pairs of restriction enzymes with 6 base-pair recognition sites (subsequence pairs)), and the digested products are ligated to complementary adapters containing standardized PCR priming sequences. Multiple PCR cycles are carried out using one biotinylated adapter-specific primer and one fluorescently labeled adapter-specific primer. Following PCR amplification, the biotin-labeled DNA is purified on immobilized streptavidin. Denatured single stranded cDNA fragments are then sized using capillary electrophoresis, and the fluorescently labeled fragments are detected by laser excitation. Since the biotin label is needed for purification and the fluorescent label is needed for detection, all analyzed fragments result from restriction digestion with both enzymes.
Differentially expressed peaks are identified by comparing the composite traces of the experimental samples vs. the control samples using bioinformatics algorithms. […]
Experiment [2] deals with primary rat adipocytes. The settings on record: added to cultures of primary rat adipocytes; cited from earlier work.
For experiment [3], the system named is primary rat adipocytes. The settings on record: added to cultures of primary rat adipocytes; cited from earlier work. This is another data set of the same source.
Experiment [4] relates to FvB mice. As to conditions: 1 mg/kg/day, intravenously by osmotically driven implanted pump, vs carrier alone; cited from earlier work.

For the molecule `CC(C)c1onc(-c2c(Cl)cccc2Cl)c1COc1ccc(/C=C/c2cccc(C(=O)O)c2)c(Cl)c1` [GW4064X], in experiment [1], the “Increase in expression of hFGF19 compared to control cells” value is given as 36.4 fold.
As for “recombinant human FGF-19: recombinant human fibroblast growth factor 19 protein”, in experiment [2], the “release of leptin from the cells” value is “increase the release of leptin”. Moreover, the uptake of glucose result in experiment [3] is listed as “decrease the uptake of glucose”. In experiment [4], the food intake result was “increased food intake” and the oxygen consumption entry is on record as “increased oxygen consumption”.
